TGI data for 5 molecules are collected here from PubChem BioAssay (NCI).

Some test systems named below: SK-OV-3 ovarian; HCT-15 colon; SF-539 CNS; CAKI-1 renal; MDA-MB-435; OVCAR-5 ovarian; SF-268 CNS; SK-MEL-28 melanoma; M14 melanoma; MCF7 breast; OVCAR-4 ovarian; NCI-H460 lung.
What all share (test): NCI-60 cell line screen, 48 h

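Where inhibition never reached the appropriate level, the endpoint shown equals the highest concentration tested. Otherwise, values were interpolated linearly from a five-concentration, 48-hour dose response in 96-well plates. TGI marks complete inhibition of growth.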

Regarding `Oc1c(C(O)(c2ccccc2)c2ccc3ccccc3c2O)ccc2ccccc12`, the TGI was determined as 38.3 µM in the assay with SK-OV-3 ovarian; 25.9 µM in the assay on HCT-15 colon; 36.1 µM with SF-539 CNS; 33.8 µM in the assay with CAKI-1 renal; 40.6 µM in the assay with MDA-MB-435; 38.3 µM in the assay on OVCAR-5 ovarian. In addition, the TGI with SF-268 CNS is 28.4 µM; in the assay with SK-MEL-28 melanoma, 33.3 µM; in the assay with M14 melanoma, 31 µM; in the assay on MCF7 breast, 24 µM; in the assay on OVCAR-4 ovarian it was above 47.8 µM; in the assay on NCI-H460 lung it was 22.3 µM.
`C=C1CC(OC(C)=O)/C=C(/C)CCC(C(C)(C)O)CC1O` (stereo not given): the TGI in the assay with SK-OV-3 ovarian, in the assay with HCT-15 colon, with SF-539 CNS, in the assay with CAKI-1 renal, in the assay with MDA-MB-435 and in the assay with OVCAR-5 ovarian was above 100 µM each time. The TGI with SF-268 CNS, in the assay with SK-MEL-28 melanoma, in the assay with M14 melanoma, in the assay on MCF7 breast, with OVCAR-4 ovarian and in the assay with NCI-H460 lung was above 100 µM each time.
On to `CCCS(=O)(=O)O`, for which the TGI in the assay with SK-OV-3 ovarian, with HCT-15 colon, in the assay on SF-539 CNS, in the assay on CAKI-1 renal, in the assay on MDA-MB-435 and in the assay with OVCAR-5 ovarian was above 100 µM throughout. Besides, the TGI in the assay with SF-268 CNS, with SK-MEL-28 melanoma, in the assay on M14 melanoma, in the assay on MCF7 breast, in the assay with OVCAR-4 ovarian and in the assay with NCI-H460 lung was above 100 µM in each case.
For the molecule `C=C1C(=O)OC2/C=C(\C)CC/C=C(/C)CC(OC(=O)/C(=C/CO)CO)C12` (stereo not given), the TGI in the assay with SK-OV-3 ovarian was above 100 µM; with HCT-15 colon, 37.7 µM; with SF-539 CNS, 66.3 µM; in the assay with CAKI-1 renal it was 34 µM; in the assay with MDA-MB-435, 82.5 µM; in the assay on OVCAR-5 ovarian, 36.8 µM. Besides, the TGI with SF-268 CNS was 77.5 µM; in the assay with SK-MEL-28 melanoma it was 77.2 µM; in the assay on M14 melanoma it was 39 µM; with MCF7 breast, 48.7 µM; with OVCAR-4 ovarian, above 100 µM; with NCI-H460 lung it was above 100 µM.
`CCCCCCCCCc1cc(O)c(O)cc1CCCCCCCCC`: the TGI with SK-OV-3 ovarian, in the assay with HCT-15 colon, in the assay with SF-539 CNS, with CAKI-1 renal, with MDA-MB-435 and with OVCAR-5 ovarian was above 10 µM each time. The TGI in the assay on SF-268 CNS, in the assay on SK-MEL-28 melanoma, in the assay with M14 melanoma, in the assay on MCF7 breast, in the assay with OVCAR-4 ovarian and with NCI-H460 lung was above 10 µM in each case.
